Laboratory results published in article PMC10026764, “Overcoming the imatinib-resistant BCR-ABL mutants with new ureidobenzothiazole chemotypes endowed with potent and broad-spectrum anticancer activity” (Journal of Enzyme Inhibition and Medicinal Chemistry, 2023).
pIC50: −log10 of the molar value. Where two headings read alike, the source gives them in different places. One block for each molecule: values may come before it.

What was measured:
CCRF-CEM = experiment: NCI-60 five-dose SRB assay; format: cell-based; settings: Homo sapiens, leukaemia
NCI 60-cell line panel = experiment: cells; format: cell-based
HL-60(TB) = experiment: NCI-60 five-dose SRB assay; format: cell-based; settings: Homo sapiens, leukaemia
OVCAR-4 = experiment: NCI-60 five-dose SRB assay; format: cell-based; settings: Homo sapiens; OVCAR-4, ovarian cancer
A549/ATCC = experiment: NCI-60 five-dose SRB assay; format: cell-based; settings: Homo sapiens, non-small cell lung cancer
TK-10 = experiment: NCI-60 five-dose SRB assay; format: cell-based; settings: Homo sapiens; TK-10, renal cancer
SF-295 = experiment: NCI-60 five-dose SRB assay; format: cell-based; settings: Homo sapiens; SF-295, CNS cancer
UO-31 = experiment: NCI-60 five-dose SRB assay; format: cell-based, human; settings: UO-31, renal cancer; for GI50 / CC50: Homo sapiens; for CC50: read-out: LC50 (the source's name)
UACC-257 = experiment: NCI-60 five-dose SRB assay; format: cell-based; settings: Homo sapiens; UACC-257, melanoma
RXF 393 = experiment: NCI-60 five-dose SRB assay; format: cell-based; settings: Homo sapiens; RXF 393, renal cancer
NCI-60 cell lines = experiment: NCI-60 single dose SRB assay (panel); format: cell-based; settings: single dose 10 μM
Source text: To gain further insights about the anticancer profile of this new ureidobenzothiazole chemotypes, the structures of all final compounds were submitted to the National Cancer Institute (NCI, Developmental Therapeutics Program, Bethesda, MD, USA). Based on NCI selection criteria, compounds 2b (AK-HW-90), 2e, and 2f were chosen for broad screening against a library of 60 human cancer cell lines, representing nine types of blood and solid cancers. Employing the highly sensitive sulforhodamine B (SRB) assay, compounds 2b, 2e, and 2f were tested initially at a single dose of 10 μM, and their detailed activities on the percentages growth of the NCI-60 cell lines were illustrated in Figure 5, and compared with that observed for the lead benzothiazole AKE-5l.

SK-MEL-28 = experiment: NCI-60 five-dose SRB assay; format: cell-based; settings: Homo sapiens; SK-MEL-28, melanoma
DU-145 = experiment: NCI-60 five-dose SRB assay; format: cell-based, human; settings: DU-145, prostate cancer; for GI50 / CC50: Homo sapiens; for CC50: read-out: LC50 (the source's name)
U251 = experiment: cells; format: cell-based; settings: U251, CNS cancer; for GI50 / CC50: Homo sapiens, U-251; for CC50: read-out: LC50 (the source's name)
MDA-MB-231 = experiment: NCI-60 five-dose SRB assay; format: cell-based; settings: Homo sapiens; MDA-MB-231, breast cancer
L132 normal cell = experiment: MTT antiproliferative assay; settings: Homo sapiens, L132, 72 h, read-out: GI50 L132
MDA-MB-468 = experiment: NCI-60 five-dose SRB assay; format: cell-based; settings: Homo sapiens; MDA-MB-468, breast cancer
leukaemia K-562 cells = experiment: MTT antiproliferative assay; settings: for GI50: Homo sapiens, K562, 72 h, read-out: GI50 K-562; for SI: selectivity index (GI50 (L132)/GI50 (K562)): MTT, 72 h
786-0 = experiment: NCI-60 five-dose SRB assay; format: cell-based; settings: Homo sapiens; 786-0, renal cancer
OVCAR-8 = experiment: NCI-60 five-dose SRB assay; format: cell-based; settings: Homo sapiens; OVCAR-8, ovarian cancer
BCR-ABL^WT = BCR-ABL^WT (Homo sapiens, UniProt P00519); experiment: In vitro kinase screening (RBC), BCR-ABL^WT; format: biochemical; settings: 10-dose IC50 mode, 3-fold serial dilution, 10 μM ATP
SN12C = experiment: NCI-60 five-dose SRB assay; format: cell-based; settings: Homo sapiens, renal cancer
COLO 205 = experiment: NCI-60 five-dose SRB assay; format: cell-based; settings: Homo sapiens; COLO 205, colon cancer
SK-MEL-2 = experiment: NCI-60 five-dose SRB assay; format: cell-based; settings: Homo sapiens; SK-MEL-2, melanoma
SF-268 = experiment: NCI-60 five-dose SRB assay; format: cell-based; settings: Homo sapiens; SF-268, CNS cancer
SNB-75 = experiment: NCI-60 five-dose SRB assay; format: cell-based, human; settings: SNB-75, CNS cancer; for GI50 / CC50: Homo sapiens; for CC50: read-out: LC50 (the source's name)
MOLT-4 = experiment: NCI-60 five-dose SRB assay; format: cell-based, human; settings: MOLT-4, leukaemia; for GI50 / CC50: Homo sapiens; for CC50: read-out: LC50 (the source's name)
BT-549 = experiment: NCI-60 five-dose SRB assay; format: cell-based; settings: Homo sapiens; BT-549, breast cancer
NCI-H460 = experiment: cells; format: cell-based; settings: for CC50 / TGI: NCI-H460, NSCL cancer; for CC50: read-out: LC50 (the source's name)
NCI-H226 = experiment: NCI-60 five-dose SRB assay; format: cell-based; settings: Homo sapiens; NCI-H226, non-small cell lung cancer
NCI/ADR-RES = experiment: NCI-60 five-dose SRB assay; format: cell-based; settings: Homo sapiens, ovarian cancer
RPMI-8226 = experiment: NCI-60 five-dose SRB assay; format: cell-based; settings: Homo sapiens; RPMI-8226, leukaemia
BCR-ABL^T315I = target: T1, BCR-ABL^T315I (Homo sapiens, UniProt P00519, T315I); experiment: In vitro kinase screening (RBC), BCR-ABL^T315I; format: biochemical; settings: 10-dose IC50 mode, 3-fold serial dilution, 10 μM ATP
T1 construct: purchased Reaction Biology Corporation (RBC, Malvern, PA, USA)

SNB-19 = experiment: NCI-60 five-dose SRB assay; format: cell-based; settings: Homo sapiens; SNB-19, CNS cancer
SK-OV-3 = experiment: NCI-60 five-dose SRB assay; format: cell-based; settings: Homo sapiens; SK-OV-3, ovarian cancer
[1] = Homo sapiens, 60 cell, all tested melanoma cell lines, read-out: GI50
[2] = Homo sapiens, COLO205, HCC-2998, HCT-116 and HCT-15 colon cancer cells, read-out: GI50
[3] = Homo sapiens, NCI-H460, NCI-H460, non-small cell lung cancer

Structure (SMILES): CCN1CCN(c2ccc(NC(=O)Nc3nc4ccc(-c5ccccc5OC)cc4s3)cc2)CC1 [Compound 2b]
GI50 (CCRF-CEM): 1810 nM
GI50 (NCI 60-cell line panel; Homo sapiens, 60 cell, all ovarian cancer cell lines, read-out: GI50): < 2000 nM
GI50 (NCI 60-cell line panel; [1]): 1540 to 2510 nM
LC50 (NCI 60-cell line panel; Homo sapiens, 60 cell, several cancer cells): < 10000 nM
GI50 (NCI 60-cell line panel; [2]): 1070 to 2650 nM
GI50 (NCI 60-cell line panel; all examined cell lines): one-digit micromolar
TGI (NCI 60-cell line panel; several cancer cells): < 5000 nM
GI50 (HL-60(TB)): 1730 nM
GI50 (OVCAR-4): 1680 nM
GI50 (A549/ATCC): 1980 nM
GI50 (TK-10): 2120 nM
GI50 (SF-295): 1680 nM
GI50 (UO-31): 1520 nM
CC50 (UO-31): 5630 nM
TGI (UO-31): 2920 nM
GI50 (UACC-257): 2110 nM
GI50 (RXF 393): 1700 nM
number of cancer cells with lethal/cytotoxic effects (minus % growth values) (NCI-60 cell lines): 55 cancer cells
GI50 (SK-MEL-28): 1760 nM
TGI (DU-145): 3260 nM
GI50 (DU-145): 1740 nM
CC50 (DU-145): 6080 nM
GI50 (U251): 1570 nM
CC50 (U251): 5510 nM
TGI (U251): 2940 nM
GI50 (MDA-MB-231): 1720 nM
GI50 (L132 normal cell): 17900 nM
GI50 (MDA-MB-468): 2170 nM
GI50 (leukaemia K-562 cells): 3390 nM
SI: selectivity index (GI50 (L132)/GI50 (K562)) (leukaemia K-562 cells): 5.3
GI50 (786-0): 1800 nM
GI50 (OVCAR-8): 1990 nM
pIC50 (BCR-ABL^WT): 9.15
GI50 (SN12C): 1770 nM
GI50 (COLO 205): 1970 nM
GI50 (SK-MEL-2): 1940 nM
GI50 (SF-268): 1870 nM
GI50 (SNB-75): 1490 nM
CC50 (SNB-75): 5460 nM
TGI (SNB-75): 2860 nM
GI50 (MOLT-4): 1800 nM
CC50 (MOLT-4): 7450 nM
TGI (MOLT-4): 3670 nM
GI50 (BT-549): 1880 nM
GI50 (NCI-H460; [3]): ~1760 nM
CC50 (NCI-H460; Homo sapiens): 6010 nM
TGI (NCI-H460): 3270 nM
GI50 (NCI-H460; NCI-H460, non-small cell lung cancer): 1770 nM
GI50 (NCI-H226): 2090 nM
GI50 (NCI/ADR-RES): 1720 nM
GI50 (RPMI-8226): 2060 nM
pIC50 (BCR-ABL^T315I): 9.19
GI50 (SNB-19): 2030 nM
GI50 (SK-OV-3): 1790 nM

GI50 (leukaemia K-562 cells): 800 nM
Structure (SMILES): Cc1ccc(NC(=O)c2ccc(CN3CCN(C)CC3)cc2)cc1Nc1nccc(-c2cccnc2)n1 [Imatinib]
GI50 (L132 normal cell): > 10000 nM

Structure (SMILES): COc1ccccc1-c1ccc2nc(NC(=O)Nc3cc(C(F)(F)F)cc(C(F)(F)F)c3)sc2c1 [Compound 2e]
GI50 (CCRF-CEM): 2430 nM
GI50 (NCI 60-cell line panel; [1]): 1540 to 2510 nM
GI50 (NCI 60-cell line panel; [2]): 1070 to 2650 nM
GI50 (NCI 60-cell line panel; all examined cell lines): one-digit micromolar
GI50 (HL-60(TB)): 2010 nM
GI50 (OVCAR-4): 2120 nM
GI50 (A549/ATCC): 3190 nM
GI50 (TK-10): 4030 nM
GI50 (SF-295): 2640 nM
GI50 (UO-31): 1790 nM
CC50 (UO-31): 9290 nM
TGI (UO-31): 4070 nM
GI50 (UACC-257): 2310 nM
GI50 (RXF 393): 2190 nM
number of cancer cells with lethal/cytotoxic effects (minus % growth values) (NCI-60 cell lines): 21 cancer cells
GI50 (SK-MEL-28): 2510 nM
TGI (DU-145): 14900 nM
GI50 (DU-145): 4000 nM
CC50 (DU-145): 42400 nM
GI50 (U251): 2310 nM
CC50 (U251): 34400 nM
TGI (U251): 10300 nM
GI50 (MDA-MB-231): 1950 nM
GI50 (L132 normal cell): 35000 nM
GI50 (MDA-MB-468): 1520 nM
GI50 (leukaemia K-562 cells): 13900 nM
SI: selectivity index (GI50 (L132)/GI50 (K562)) (leukaemia K-562 cells): 2.5
GI50 (786-0): 1440 nM
GI50 (OVCAR-8): 3040 nM
pIC50 (BCR-ABL^WT): 5.39
GI50 (SN12C): 1700 nM
GI50 (COLO 205): 1650 nM
GI50 (SK-MEL-2): 2090 nM
GI50 (SF-268): 2860 nM
GI50 (SNB-75): 2250 nM
CC50 (SNB-75): 45300 nM
TGI (SNB-75): 11800 nM
GI50 (MOLT-4): 1590 nM
CC50 (MOLT-4): 51300 nM
TGI (MOLT-4): 7240 nM
GI50 (BT-549): 1620 nM
GI50 (NCI-H460; [3]): 2260 nM
CC50 (NCI-H460; Homo sapiens): 23500 nM
TGI (NCI-H460): 6120 nM
GI50 (NCI-H226): 2160 nM
GI50 (NCI/ADR-RES): 2370 nM
GI50 (RPMI-8226): 1630 nM
pIC50 (BCR-ABL^T315I): 5.02
GI50 (SNB-19): 2440 nM
GI50 (SK-OV-3): 2920 nM
